15 molecules from patent US20240124417A1, “COMPOUNDS USEFUL AS IMMUNOMODULATORS” (Bristol-Myers Squibb Company, priority 2019, published 2024) can be followed below.

Bounds are passed on as bounds.

This experiment deals with T1, PD-1/PD-L1 (Homo sapiens, UniProt Q9NZQ7).
T1 construct: TVMV protease site linker (C); made in house; host or cells: HEK293T cells
T1 sequence (Q9NZQ7 18-239): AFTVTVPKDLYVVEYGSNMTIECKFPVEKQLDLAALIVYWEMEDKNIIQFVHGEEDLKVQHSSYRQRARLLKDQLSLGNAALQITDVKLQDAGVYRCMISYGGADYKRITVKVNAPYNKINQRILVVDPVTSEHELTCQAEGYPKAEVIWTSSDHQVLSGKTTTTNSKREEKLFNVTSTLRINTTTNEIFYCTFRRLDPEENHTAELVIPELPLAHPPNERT
The experiment in a line: PD-1/PD-L1 Homogenous Time-Resolved Fluorescence (HTRF) binding assay. As to conditions: PD-L1-His 10 nM, PD-1-Ig 20 nM. In a few lines: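 Inhibitors pre-incubated 15 min with PD-L1-His extracellular domain (10 nM final) in dPBS with 0.1% BSA and 0.05% Tween-20, then PD-1-Ig (20 nM final) added for a further 15 min. Read-out by HTRF with europium cryptate anti-Ig (1 nM) and APC anti-His (20 nM). Related pairs: PD-1-Ig/PD-L2-His (20/5 nM), CD80-His/PD-L1-Ig (100/10 nM).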
For orientation: TR-FRET usually uses a lanthanide donor and a delayed reading to cut background.
What is called IC50 is the midpoint of a concentration-inhibition curve. Read a low IC50 as higher potency. For `Cc1c(COc2cc(OCc3cncc(C#N)c3)c(CN(C)CCc3c[nH]cn3)cc2Cl)cccc1-c1cccc(OCCCN2CC[C@@H](O)C2)c1C` [Example 2535, (R)-5-((2-(((2-(1H-imidazol-4-yl)ethyl)(methyl)amino)methyl)-4-chloro-5-((3′-(3-(3-hydroxypyrrolidin-1-yl)propoxy)-2,2′-dimethyl-[1,1′-biphenyl]-3-yl)methoxy)phenoxy)methyl)nicotinonitrile], the half-maximal inhibitory concentration (IC50) came to 3.9 nM. That is a single-digit nanomolar value.

`Cc1c(COc2cc(OCc3cncc(C#N)c3)c(CNCc3cc(C)n(C)n3)cc2Cl)cccc1-c1cccc(OCCCN2CC[C@@H](O)C2)c1C` [Example 2536, (R)-5-((4-chloro-2-((((1,5-dimethyl-1H-pyrazol-3-yl)methyl)amino)methyl)-5-((3′-(3-(3-hydroxypyrrolidin-1-yl)propoxy)-2,2′-dimethyl-[1,1′-biphenyl]-3-yl)methoxy)phenoxy)methyl)nicotinonitrile] returned an IC50 of 7.4 nM.

On to `Cc1c(COc2cc(OCc3cncc(C#N)c3)c(CNCc3cc4ccccn4n3)cc2Cl)cccc1-c1cccc(OCCCN2CC[C@@H](O)C2)c1C` [Example 2537, (R)-5-((4-chloro-5-((3′-(3-(3-hydroxypyrrolidin-1-yl)propoxy)-2,2′-dimethyl-[1,1′-biphenyl]-3-yl)methoxy)-2-(((pyrazolo[1,5-a]pyridin-2-ylmethyl)amino)methyl)phenoxy)methyl)nicotinonitrile], for which the IC50 was 6.5 nM.

The molecule `Cc1c(COc2cc(OCc3cncc(C#N)c3)c(CNCc3cc(-c4ccccc4)on3)cc2Cl)cccc1-c1cccc(OCCCN2CC[C@@H](O)C2)c1C` [Example 2538, (R)-5-((4-chloro-5-((3′-(3-(3-hydroxypyrrolidin-1-yl)propoxy)-2,2′-dimethyl-[1,1′-biphenyl]-3-yl)methoxy)-2-((((5-phenylisoxazol-3-yl)methyl)amino)methyl)phenoxy)methyl)nicotinonitrile] registered an IC50 of 43.8 nM.

Molecule `Cc1c(COc2cc(OCc3cncc(C#N)c3)c(CNCc3cocn3)cc2Cl)cccc1-c1cccc(OCCCN2CC[C@@H](O)C2)c1C` [Example 2539, (R)-5-((4-chloro-5-((3′-(3-(3-hydroxypyrrolidin-1-yl)propoxy)-2,2′-dimethyl-[1,1′-biphenyl]-3-yl)methoxy)-2-(((oxazol-4-ylmethyl)amino)methyl)phenoxy)methyl)nicotinonitrile] returned an IC50 of 0.7 nM.

The molecule `Cc1nc(CNCc2cc(Cl)c(OCc3cccc(-c4cccc(OCCCN5CC[C@@H](O)C5)c4C)c3C)cc2OCc2cncc(C#N)c2)no1` [Example 2540, (R)-5-((4-chloro-5-((3′-(3-(3-hydroxypyrrolidin-1-yl)propoxy)-2,2′-dimethyl-[1,1′-biphenyl]-3-yl)methoxy)-2-((((5-methyl-1,2,4-oxadiazol-3-yl)methyl)amino)methyl)phenoxy)methyl)nicotinonitrile] showed an IC50 of 3.1 nM.

In the case of `Cc1c(COc2cc(OCc3cncc(C#N)c3)c(CN(C)Cc3cc(C)n(C)n3)cc2Cl)cccc1-c1cccc(OCCCN2CC[C@@H](O)C2)c1C` [Example 2541, (R)-5-((4-chloro-2-((((1,5-dimethyl-1H-pyrazol-3-yl)methyl)(methyl)amino)methyl)-5-((3′-(3-(3-hydroxypyrrolidin-1-yl)propoxy)-2,2′-dimethyl-[1,1′-biphenyl]-3-yl)methoxy)phenoxy)methyl)nicotinonitrile], the IC50 was 3.9 nM.

Molecule `Cc1c(COc2cc(OCc3cncc(C#N)c3)c(CN(C)Cc3cc4ccccn4n3)cc2Cl)cccc1-c1cccc(OCCCN2CC[C@@H](O)C2)c1C` [Example 2542, (R)-5-((4-chloro-5-((3′-(3-(3-hydroxypyrrolidin-1-yl)propoxy)-2,2′-dimethyl-[1,1′-biphenyl]-3-yl)methoxy)-2-((methyl(pyrazolo[1,5-a]pyridin-2-ylmethyl)amino)methyl)phenoxy)methyl)nicotinonitrile] showed an IC50 of 3.9 nM.

For `Cc1c(COc2cc(OCc3cncc(C#N)c3)c(CN(C)Cc3cc(-c4ccccc4)on3)cc2Cl)cccc1-c1cccc(OCCCN2CC[C@@H](O)C2)c1C` [Example 2543, (R)-5-((4-chloro-5-((3′-(3-(3-hydroxypyrrolidin-1-yl)propoxy)-2,2′-dimethyl-[1,1′-biphenyl]-3-yl)methoxy)-2-((methyl((5-phenylisoxazol-3-yl)methyl)amino)methyl)phenoxy)methyl)nicotinonitrile], the IC50 came to 192 nM.

In the case of `Cc1c(COc2cc(OCc3cncc(C#N)c3)c(CN(C)Cc3cocn3)cc2Cl)cccc1-c1cccc(OCCCN2CC[C@@H](O)C2)c1C` [Example 2544, (R)-5-((4-chloro-5-((3′-(3-(3-hydroxypyrrolidin-1-yl)propoxy)-2,2′-dimethyl-[1,1′-biphenyl]-3-yl)methoxy)-2-((methyl(oxazol-4-ylmethyl)amino)methyl)phenoxy)methyl)nicotinonitrile], the half-maximal inhibitory concentration (IC50) is 1.6 nM.

Turning to `Cc1nc(CN(C)Cc2cc(Cl)c(OCc3cccc(-c4cccc(OCCCN5CC[C@@H](O)C5)c4C)c3C)cc2OCc2cncc(C#N)c2)no1` [Example 2545, (R)-5-((4-chloro-5-((3′-(3-(3-hydroxypyrrolidin-1-yl)propoxy)-2,2′-dimethyl-[1,1′-biphenyl]-3-yl)methoxy)-2-((methyl((5-methyl-1,2,4-oxadiazol-3-yl)methyl)amino)methyl)phenoxy)methyl)nicotinonitrile], the IC50 turned out to be 11.9 nM.

Consider `Cc1c(COc2cc(OCc3cncc(C#N)c3)c(CNCc3ncco3)cc2Cl)cccc1-c1cccc(OCCCN2CC[C@@H](O)C2)c1C` [Example 2546, (R)-5-((4-chloro-5-((3′-(3-(3-hydroxypyrrolidin-1-yl)propoxy)-2,2′-dimethyl-[1,1′-biphenyl]-3-yl)methoxy)-2-(((oxazol-2-ylmethyl)amino)methyl)phenoxy)methyl)nicotinonitrile], for which the IC50 turned out to be 1.8 nM.

Consider `Cc1c(COc2cc(OCc3cncc(C#N)c3)c(CNCc3cnco3)cc2Cl)cccc1-c1cccc(OCCCN2CC[C@@H](O)C2)c1C` [Example 2547, (R)-5-((4-chloro-5-((3′-(3-(3-hydroxypyrrolidin-1-yl)propoxy)-2,2′-dimethyl-[1,1′-biphenyl]-3-yl)methoxy)-2-(((oxazol-5-ylmethyl)amino)methyl)phenoxy)methyl)nicotinonitrile], for which the IC50 came to 2.5 nM.

`CCc1csc(CNCc2cc(Cl)c(OCc3cccc(-c4cccc(OCCCN5CC[C@@H](O)C5)c4C)c3C)cc2OCc2cncc(C#N)c2)n1` [Example 2548, (R)-5-((4-chloro-2-((((4-ethylthiazol-2-yl)methyl)amino)methyl)-5-((3′-(3-(3-hydroxypyrrolidin-1-yl)propoxy)-2,2′-dimethyl-[1,1′-biphenyl]-3-yl)methoxy)phenoxy)methyl)nicotinonitrile] came in with an IC50 of less than 0.038 nM.

Regarding `Cc1c(COc2cc(OCc3cncc(C#N)c3)c(CNCc3nc4ccccc4s3)cc2Cl)cccc1-c1cccc(OCCCN2CC[C@@H](O)C2)c1C` [Example 2549, (R)-5-((2-(((benzo[d]thiazol-2-ylmethyl)amino)methyl)-4-chloro-5-((3′-(3-(3-hydroxypyrrolidin-1-yl)propoxy)-2,2′-dimethyl-[1,1′-biphenyl]-3-yl)methoxy)phenoxy)methyl)nicotinonitrile], the 50% inhibitory concentration (IC50) came out at 33.2 nM.
